Read-outs that look alike come from different tables or passages of the source.
Assays:
[1] = molecular target: T1, human Alpha-1a Adrenergic receptor (Homo sapiens, UniProt P35348); experiment: Binding affinity at the human alpha-1A adrenergic receptor; details: Table 3c; read-out: hAlpha-1a Ki
T1 construct: expressed in transfected cells
T1 sequence (P35348 1-466): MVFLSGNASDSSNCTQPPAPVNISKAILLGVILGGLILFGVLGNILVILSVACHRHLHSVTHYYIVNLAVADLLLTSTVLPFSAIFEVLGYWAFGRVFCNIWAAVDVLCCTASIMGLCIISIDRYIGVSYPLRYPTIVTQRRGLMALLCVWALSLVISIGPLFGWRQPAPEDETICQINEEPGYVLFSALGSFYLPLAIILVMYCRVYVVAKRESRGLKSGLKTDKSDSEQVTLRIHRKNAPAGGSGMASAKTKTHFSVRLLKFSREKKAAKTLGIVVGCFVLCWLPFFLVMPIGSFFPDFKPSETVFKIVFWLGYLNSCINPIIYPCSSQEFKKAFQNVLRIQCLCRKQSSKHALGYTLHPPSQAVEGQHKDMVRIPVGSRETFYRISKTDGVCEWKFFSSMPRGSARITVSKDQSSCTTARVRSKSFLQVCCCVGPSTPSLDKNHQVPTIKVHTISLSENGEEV
Procedure, shortened: (§1)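 Receptor binding read-out throughout; membranes expressing human D1 or D2 receptor were used for those two targets.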

[2] = molecular target: T2, human Histamine H1 receptor (Homo sapiens, UniProt P35367); experiment: Binding affinity at the human histamine H1 receptor; details: Table 3c; read-out: hH1 Ki
T2 construct: expressed in transfected cells
Procedure, shortened: as §1

[3] = molecular target: T3, human Dopamine D2 receptor (Homo sapiens, UniProt P14416); experiment: Binding affinity at the human dopamine D2 receptor; details: Table 3c; read-out: hD2 Ki
T3 construct: purchased BioSignal, Inc. (Montreal, Canada)
Procedure, shortened: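 Affinities were measured in binding assays. Human D1 and D2 receptors were supplied as membranes of expressing cells, while α2A adrenoceptor and D5 binding followed separately described procedures.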

[4] = molecular target: T4, rat MCH1 receptor (Rattus norvegicus, UniProt P97639); experiment: Binding affinity (Ki) at the rat MCH1 receptor
T4 construct: expressed in transfected cells

[5] = test system: micturition reflex, conscious male Sprague Dawley rats; experiment: Continuous Slow Transvesicular Infusion (CSTI) rat model; type: in vivo; parameters: key to Effect of MCH1 antagonist in the CSTI model: B = Produced an increase in bladder capacity in rats relative to baseline capacity; details: bladder capacity, intragastric
Experimental: The effects of compounds on the micturition reflex were assessed in the “distension-induced rhythmic contraction” (DIRC), as described in previous publications (e.g. Maggi et al, 1987; Morikawa et al, 1992), and Continuous Slow Transvesicular Infusion (CSTI) models in rats. Male Sprague Dawley rats weighing approximately 300 g were used for the study. Rats were anaesthetized with pentobarbitone sodium (50 mg/kg, i.p). Through a median abdominal incision, bladder was exposed and a polyethylene cannula (PE 50) was introduced into the bladder through a small cut on the dome of the bladder and the cannula was secured with a purse string suture. The other end of the cannula was exteriorized subcutaneously at the dorsal neck area. Similarly, another cannula (PE 50) was introduced into the stomach through a paramedian abdominal incision with the free end exteriorized subcutaneously to the neck region. The surgical wounds were closed with silk 4-0 suture and the animal was allowed to recover with appropriate post surgical care. On the following day, the animal was placed in a rat restrainer. The open end of the bladder cannula was connected to a pressure transducer as well as infusion pump through a three-way stopcock. The bladder voiding cycles were initiated by continuous infusion of normal saline at the rate of 100 ul/min. The repetitive voiding contractions were recorded on a Power Lab on-line data acquisition software. After recording the basal voiding pattern for an hour, the test drug or vehicle was administered directly into stomach through the intragastric catheter and the voiding cycles were monitored for 5 hours. Micturition pressure and frequency were calculated before and after the treatment (at every 30 min interval) for each animal. Bladder capacity was calculated from the micturition frequency, based on the constant infusion of 100 ul/min. The effect of the test drug was expressed as a percentage of basal, pre-drug bladder capacity. WAY 100635 was used as positive control for comparison.

[6] = molecular target: T5, human MCH1 receptor (Homo sapiens, UniProt Q99705); experiment: Saturation and competition binding of [3H]Compound 10, membranes of Cos-7 cells transfected with MCH1; parameters: expressed in transfected cells; host or cells: COS-7; details: room temperature, 90 min; read-out: Kd (Scatchard analysis of saturation binding)
Experimental: Saturation equilibrium binding of [3H]Compound 10 to the human MCH1 receptor. Membrane preparations from Cos-7 cells transfected with MCH1 were incubated with varying concentrations of [3H]Compound 10 (SA: 56 Ci/mmol) at room temperature for 90 min, in a volume of 0.250 ml. The reaction was terminated by filtration in GF/C filters, and the radioactivity determined by scintillation counting. Non-specific binding was defined as the amount of radioactivity retained in the filter after incubating the reaction mixture in the presence of unlabeled Compound 10 ([…]).
Competition binding of [3H]Compound 10 to the human MCH1 receptor. […] The reaction was terminated by filtration in GF/C filters and the radioactivity bound to the membrane was determined by scintillation counting.
[3H]Compound 10 was tested for its ability to bind to membrane preparations of cells expressing the human MCH1 receptor.

[7] = molecular target: T5, human MCH1 receptor; type: cell-based; parameters: expressed in transfected cells; host or cells: COS-7; details: agonist challenge
Experimental: Guidelines for cell preparation and assay of the second messenger inositol phosphate (IP) are described below for a typical protocol involving transiently transfected Cos-7 cells; For a 96 well microplate format assay, cells are plated at 70,000 cells per well and allowed to incubate for 24 hours after the transfection procedure. The cells are then labeled with 0.5 μCi [^3H]myo-inositol per micro-well over night at 37° C., 5% CO2. Immediately before the assay, the medium is removed and replaced with 90 μl PBS containing 10 mM LiCl. The plates are then incubated for 15 minutes at 37° C., […]. Following the incubation, the transfectants are challenged with agonist (10 μl/well; 10× concentration) for 30 minutes at 37° C., 5% CO2. The challenge is terminated and the cells lysed by the addition of 100 μl cold 5% v/v trichloroacetic acid (TCA), followed by an incubation at 4° C. for greater than 30 minutes. Total IPs are isolated from the lysate by ion exchange chromatography. Briefly, the lysed contents of the wells are transferred to a Multiscreen HV filter plate (Millipore) containing 100 μl Dowex AG1-X8 suspension (50% v/v, water:resin) (200-400 mesh, formate form). The filter plates are placed on a vacuum manifold to wash and elute the resin bed. Each well is first washed 2 times with 200 μl 5 mM myoinositol. Total [^3H]IPs are eluted with 75 μl of 1.2 M ammonium formate/0.1 M formic acid into Wallac 96-well plates. 200 μl of SuperMix scintillation cocktail is added to each well, mixed well, allowed to equilibrate and counted on a Micro Beta Trilux scintillation counter. (Note: The assay may be scaled to a 24 well format by simple adjustment of reagent volumes and employing individual chromatographic columns.)
The expression vector (pEXJ) containing the MCH1 cDNA was transfected by electroporation into Cos-7 cells in combination with an expression vector (pEXJ) containing the Gα16 subunit.

[8] = Examples 38-141, read-out: Ki (nM) rMCH1

T4 sequence (P97639 whole entry): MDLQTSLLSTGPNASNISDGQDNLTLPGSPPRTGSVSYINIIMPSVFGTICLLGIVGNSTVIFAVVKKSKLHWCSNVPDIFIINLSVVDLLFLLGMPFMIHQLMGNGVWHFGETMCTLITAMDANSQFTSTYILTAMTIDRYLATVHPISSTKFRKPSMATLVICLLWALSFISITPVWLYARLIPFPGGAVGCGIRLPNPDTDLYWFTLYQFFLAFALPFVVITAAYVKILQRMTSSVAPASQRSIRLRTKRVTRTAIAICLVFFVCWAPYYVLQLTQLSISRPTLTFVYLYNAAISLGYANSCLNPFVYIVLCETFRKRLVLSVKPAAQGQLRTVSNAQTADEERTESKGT
T2 sequence (P35367 whole entry): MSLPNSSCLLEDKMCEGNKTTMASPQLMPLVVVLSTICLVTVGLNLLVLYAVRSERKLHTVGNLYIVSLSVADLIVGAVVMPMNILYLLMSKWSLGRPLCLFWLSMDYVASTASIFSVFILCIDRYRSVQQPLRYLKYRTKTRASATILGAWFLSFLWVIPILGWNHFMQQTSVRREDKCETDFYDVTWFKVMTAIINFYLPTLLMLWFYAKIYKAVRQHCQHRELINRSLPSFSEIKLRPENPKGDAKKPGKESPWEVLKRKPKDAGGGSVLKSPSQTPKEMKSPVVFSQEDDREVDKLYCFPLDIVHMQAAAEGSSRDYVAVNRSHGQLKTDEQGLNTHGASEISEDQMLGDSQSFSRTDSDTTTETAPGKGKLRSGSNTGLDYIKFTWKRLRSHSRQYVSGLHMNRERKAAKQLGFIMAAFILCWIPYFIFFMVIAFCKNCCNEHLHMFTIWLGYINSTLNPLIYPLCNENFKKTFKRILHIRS
T3 sequence (P14416 whole entry): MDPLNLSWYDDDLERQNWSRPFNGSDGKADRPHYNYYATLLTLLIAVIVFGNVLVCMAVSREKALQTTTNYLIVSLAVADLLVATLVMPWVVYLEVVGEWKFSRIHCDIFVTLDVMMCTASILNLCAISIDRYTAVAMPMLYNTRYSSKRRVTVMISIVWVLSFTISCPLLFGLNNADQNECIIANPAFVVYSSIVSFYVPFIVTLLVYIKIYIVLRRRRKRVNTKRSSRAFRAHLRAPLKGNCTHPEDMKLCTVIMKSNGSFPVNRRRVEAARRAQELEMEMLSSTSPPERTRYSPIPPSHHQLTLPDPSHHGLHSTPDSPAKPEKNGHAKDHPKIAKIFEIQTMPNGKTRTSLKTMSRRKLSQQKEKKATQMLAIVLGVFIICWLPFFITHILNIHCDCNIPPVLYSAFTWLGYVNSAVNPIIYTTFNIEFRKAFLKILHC
T5 sequence (Q99705 whole entry): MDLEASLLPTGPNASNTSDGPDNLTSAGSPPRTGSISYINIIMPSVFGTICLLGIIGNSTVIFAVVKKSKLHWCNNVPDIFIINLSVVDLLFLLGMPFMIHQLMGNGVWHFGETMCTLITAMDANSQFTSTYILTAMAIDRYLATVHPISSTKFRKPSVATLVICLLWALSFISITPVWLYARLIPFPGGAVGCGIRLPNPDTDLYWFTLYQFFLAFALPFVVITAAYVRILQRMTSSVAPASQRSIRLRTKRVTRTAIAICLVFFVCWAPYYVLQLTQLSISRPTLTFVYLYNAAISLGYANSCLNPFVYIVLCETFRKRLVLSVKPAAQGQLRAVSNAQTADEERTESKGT

Compound | Ki [1] | Ki [2] | Ki [3] | Ki [4, 8] | Ki ([4]; Table 3c, read-out: rMCH1 Ki) | Effect of MCH1 antagonist in the CSTI model [5] | Kd [6] | dose-responsiveness of inositol phosphate formation [7]
Cc1ccc(C(=O)CCCN2CCC(c3cccc(NC(=O)C(C)C)c3)CC2)cc1C [Example 58] | 32.1 nM | 700 nM | 2840 nM | 3.9 nM | 3.9 nM | B | – | –
COCC1=C(C(=O)OC)[C@H](c2ccc(F)c(F)c2)N(C(=O)NCCCN2CCC(c3cccc(NC(C)=O)c3)CC2)C(=O)N1 [[3H]Compound 10, TRITIATED METHYL (4S)-3-{[(3-{4-[3-(ACETYLAMINO)PHENYL]-1-PIPERIDINYL}PROPYL)AMINO]CARBONYL}-4-(3,4-DIFLUOROPHENYL)-6-(METHOXYMETHYL)-2-OXO-1,2,3,4-TETRAHYDRO-5-PYRIMIDINECARBOXYLATE] | – | – | – | – | – | – | 0.18 nM | –
O=C(CCCN1CCC(O)(c2ccc(Cl)cc2)CC1)c1ccc(F)cc1 [haloperidol] | – | – | – | – | – | – | – | No dose-responsiveness
dynorphin A1-13: compound tested for its ability to activate MCH1 (YGGFLRRIRPKLK) | – | – | – | – | – | – | – | No dose-responsiveness

The next lines start with results.

Ki [1] | Ki [2] | Ki [3] | Ki [4, 8] | Ki ([4]; Table 3c, read-out: rMCH1 Ki) | Compound | Effect of MCH1 antagonist in the CSTI model [5] | Kd [6] | dose-responsiveness of inositol phosphate formation [7]
21.9 nM | 10800 nM | 3570 nM | 0.23 nM | 0.23 nM | COCC1=C(C(=O)OC)[C@H](c2ccc(F)c(F)c2)N(C(=O)NCCCN2CCC(c3cccc(NC(=O)C(C)C)c3)CC2)C(=O)N1 [Example 43, METHYL (4S)-4-(3,4-DIFLUOROPHENYL)-3-{[(3-{4-[3-(ISOBUTYRYLAMINO)PHENYL]-1-PIPERIDINYL}PROPYL)AMINO]CARBONYL}-6-(METHOXYMETHYL)-2-OXO-1,2,3,4-TETRAHYDRO-5-PYRIMIDINECARBOXYLATE] | B | – | –
19.4 nM | 461 nM | 862 nM | 2.8 nM | 2.8 nM | CC(C)C(=O)Nc1cccc(C2CCN(CCCC(=O)c3ccc(Cl)cc3)CC2)c1 [Example 66] | B | – | –

Reference: patent US20040038855A1 (priority 1999, published 2004)
